Tests used:
[1] = Hemolytic activity, spectrophotometric; assay type: cell-based, human; details: human, human red blood cells (huRBC), 5% hematocrit, 200 μg/mL, 37 °C
[2] = system: CCRF-CEM; assay: cells; details: Homo sapiens, 48 h
[3] = system: HL-60(TB); assay: cells; details: Homo sapiens, HL-60, 48 h
[4] = system: K-562; assay: cells; details: Homo sapiens, K562, 48 h
[5] = system: EKVX; assay: cells; details: Homo sapiens, 48 h
[6] = system: HOP-62; assay: cells; details: Homo sapiens, HOP-62, 48 h
[7] = system: NCI-H322M; assay: cells; details: Homo sapiens, 48 h
[8] = system: NCI-H460; assay: cells; details: Homo sapiens, NCI-H460, 48 h
[9] = system: COLO 205; assay: cells; details: Homo sapiens, COLO 205, 48 h
[10] = system: HCC-2998; assay: cells; details: Homo sapiens, HCC 2998, 48 h
[11] = system: HCT-15; assay: cells; details: Homo sapiens, HCT-15, 48 h
[12] = system: HT29; assay: cells; details: Homo sapiens, HT-29, 48 h
[13] = system: KM12; assay: cells; details: Homo sapiens, KM12, 48 h
[14] = system: SF-268; assay: cells; details: Homo sapiens, SF-268, 48 h
[15] = system: SF-295; assay: cells; details: Homo sapiens, SF-295, 48 h
[16] = system: SF-539; assay: cells; details: Homo sapiens, SF-539, 48 h
[17] = system: SNB-75; assay: cells; details: Homo sapiens, SNB-75, 48 h, read-out: LC50
[18] = system: MALME-3M; assay: cells; details: Homo sapiens, 48 h
[19] = system: M14; assay: cells; details: Homo sapiens, M14, 48 h
[20] = system: SK-MEL-28; assay: cells; details: Homo sapiens, SK-MEL-28, 48 h
[21] = system: SK-MEL-5; assay: cells; details: Homo sapiens, SK-MEL-5, 48 h
[22] = system: UACC-257; assay: cells; details: Homo sapiens, UACC-257, 48 h
[23] = system: UACC-62; assay: cells; details: Homo sapiens, UACC-62, 48 h
[24] = system: OVCAR-3; assay: cells; details: Homo sapiens, OVCAR-3, 48 h
[25] = system: OVCAR-4; assay: cells; details: Homo sapiens, OVCAR-4, 48 h
[26] = system: OVCAR-5; assay: cells; details: Homo sapiens, OVCAR-5, 48 h
[27] = system: OVCAR-8; assay: cells; details: Homo sapiens, OVCAR-8, 48 h
[28] = system: SK-OV-3; assay: cells; details: Homo sapiens, SK-OV-3, 48 h
[29] = system: 786-0; assay: cells; details: Homo sapiens, 786-0, 48 h
[30] = system: A498; assay: cells; details: Homo sapiens, A498, 48 h
[31] = system: CAKI-1; assay: cells; details: Homo sapiens, CAKI-1, 48 h
[32] = system: RXF 393; assay: cells; details: Homo sapiens, RXF 393, 48 h
[33] = system: SN12C; assay: cells; details: Homo sapiens, 48 h
[34] = system: TK-10; assay: cells; details: Homo sapiens, TK-10, 48 h
[35] = system: UO-31; assay: cells; details: Homo sapiens, UO-31, 48 h
[36] = system: MCF7; assay: cells; details: Homo sapiens, MCF7, 48 h
[37] = system: HS 578T; assay: cells; details: Homo sapiens, 48 h
[38] = system: MDA-MB-468; assay: cells; details: Homo sapiens, MDA-MB-468, 48 h

COc1cc(/C=C/C(=O)c2ccc(S(=O)(=O)NCCNc3nc(Nc4ccc(F)cc4)nc(N(C)C)n3)cc2)cc(OC)c1OC [24d]
hemolysis at 24 h, 200 µg/mL [1]: 2.3%
GI50 [2]: 3.62 µM
CC50 ([2]; read-out: LC50): > 100 µM
GI50 [3]: 2.64 µM
CC50 ([3]; read-out: LC50): > 100 µM
GI50 ([4]; K-562, 48 h): 2.73 µM
CC50 ([4]; read-out: LC50): > 100 µM
GI50 [5]: 4.85 µM
CC50 ([5]; read-out: LC50): 42.2 µM
GI50 [6]: 14.1 µM
CC50 ([6]; read-out: LC50): 59.9 µM
GI50 [7]: 10.1 µM
CC50 ([7]; read-out: LC50): > 100 µM
GI50 [8]: 5.12 µM
CC50 ([8]; read-out: LC50): 50.6 µM
GI50 [9]: 4.78 µM
CC50 ([9]; read-out: LC50): 86.1 µM
GI50 [10]: 1.62 µM
CC50 ([10]; read-out: LC50): 5.52 µM
GI50 [11]: 1.8 µM
CC50 ([11]; read-out: LC50): 6.57 µM
GI50 [12]: 1.93 µM
CC50 ([12]; read-out: LC50): 6.46 µM
GI50 [13]: 2.07 µM
GI50 [14]: 11.7 µM
CC50 ([14]; read-out: LC50): > 100 µM
GI50 [15]: 2.16 µM
CC50 ([15]; read-out: LC50): 11.1 µM
GI50 [16]: 1.71 µM
CC50 ([16]; read-out: LC50, SF-539, 48 h): 5.93 µM
CC50 [17]: 91.9 µM
GI50 [18]: 11.9 µM
CC50 ([18]; read-out: LC50): 55.2 µM
GI50 [19]: 3.28 µM
CC50 ([19]; read-out: LC50): 47.4 µM
GI50 [20]: 6.13 µM
CC50 ([20]; read-out: LC50): 44.6 µM
GI50 [21]: 3.4 µM
CC50 ([21]; read-out: LC50): 36.2 µM
GI50 [22]: 15.1 µM
CC50 ([22]; read-out: LC50): 65.1 µM
GI50 [23]: 8.28 µM
CC50 ([23]; read-out: LC50): 48.8 µM
GI50 [24]: 6.18 µM
CC50 ([24]; read-out: LC50): 98.4 µM
GI50 [25]: 8.02 µM
CC50 ([25]; read-out: LC50): > 100 µM
GI50 [26]: 12.9 µM
CC50 ([26]; read-out: LC50): 55.4 µM
GI50 [27]: 11.1 µM
CC50 ([27]; read-out: LC50): > 100 µM
GI50 [28]: 21.8 µM
CC50 ([28]; read-out: LC50): > 100 µM
GI50 [29]: 2.94 µM
CC50 ([29]; read-out: LC50): 51.9 µM
GI50 [30]: 11.3 µM
CC50 ([30]; read-out: LC50): 50.3 µM
GI50 [31]: 5.2 µM
CC50 ([31]; read-out: LC50): > 100 µM
GI50 [32]: 1.45 µM
CC50 ([32]; read-out: LC50): 6.74 µM
GI50 [33]: 5.71 µM
CC50 ([33]; read-out: LC50): 63.6 µM
GI50 [34]: 13.1 µM
CC50 ([34]; read-out: LC50): > 100 µM
GI50 [35]: 4.45 µM
CC50 ([35]; read-out: LC50): 41.4 µM
GI50 [36]: 1.96 µM
CC50 ([36]; read-out: LC50): 9.34 µM
GI50 [37]: 8.24 µM
CC50 ([37]; read-out: LC50): > 100 µM
GI50 [38]: 2 µM
CC50 ([38]; read-out: LC50): 11.5 µM

Reference: PMC11012124, “Synthesis of Novel Triazine-Based Chalcones and 8,9-dihydro-7H-pyrimido[4,5-b][1,4]diazepines as Potential Leads in the Search of Anticancer, Antibacterial and Antifungal Agents” (International Journal of Molecular Sciences, 2024)
